Data: patent US20250367209A1 (SOUTHERN RESEARCH INSTITUTE, priority 2022, published 2025)
Where two headings read alike, the source gives them in different places.

Key:
[1] = Metabolic stability in mouse liver microsomes; format: in vitro ADME; conditions: for half-life: mouse, liver microsomes, Table 3, read-out: ADME t1/2 (min): MLMt1/2
Solubility = format: physicochemical; conditions: Table 3
[2] = Metabolic stability in human liver microsomes; format: in vitro ADME; conditions: Table 3, read-out: ADME t1/2 (min): HLMt1/2
Text: (§1) A computational analysis of the top five hits was then completed to assess the physical attributes of the compounds emerging from the HTS. The target profile for drug-like properties included evaluation of molecular weight (MW), total polar surface area (PSA, the surface sum of all polar atoms on the molecule), solubility, metabolic stability, and partition coefficient (LogD). In general, MW<[…] and PSA <70 Å^2 were targeted, which generally allows for blood-brain barrier (BBB) permeability. Compounds with PSA >100 A^2 are generally poor at permeating cell membranes. Solubility was targeted at >10 μM at pH 7.4 and 40-60% of compound remaining after 60 minutes of incubation in mouse or human liver microsomes (an indicator of compound stability after first-pass metabolism). LogD is the log of the ratio of concentrations of a compound in two immiscible solvents at equilibrium. Values ranging from 2-4 were targeted, typical for CNS drugs. Based on these criteria, compound no. 55 was selected as the top hit for optimization. Compound no.

Tau-FynSH3 interaction = Tau-FynSH3 interaction (Homo sapiens (Human), UniProt P10636); assay: Tau-FynSH3 AlphaScreen; format: binding
Sequence of Tau-FynSH3 interaction (P10636 other isoform, or with tags, fused parts or gaps): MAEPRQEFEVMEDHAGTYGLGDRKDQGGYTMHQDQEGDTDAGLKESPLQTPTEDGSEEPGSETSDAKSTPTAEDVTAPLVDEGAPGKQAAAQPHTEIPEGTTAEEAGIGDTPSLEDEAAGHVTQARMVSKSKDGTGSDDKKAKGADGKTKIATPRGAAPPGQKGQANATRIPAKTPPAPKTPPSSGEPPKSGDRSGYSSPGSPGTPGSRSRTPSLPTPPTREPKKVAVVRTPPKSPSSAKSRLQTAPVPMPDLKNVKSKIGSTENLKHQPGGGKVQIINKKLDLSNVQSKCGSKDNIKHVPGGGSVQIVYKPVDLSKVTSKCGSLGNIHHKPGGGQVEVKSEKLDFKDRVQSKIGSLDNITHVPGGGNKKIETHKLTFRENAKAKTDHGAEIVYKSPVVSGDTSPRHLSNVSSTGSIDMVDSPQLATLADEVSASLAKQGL
Text: Human Fyn-SH3 domain with GST-tag at the N-terminus and a Strep-tag II ([…]) at the C-terminus (GST-Fyn-SH3-Strep) was cloned into pPR-IBA1 vector (IBA Lifesciences) (Cochran, et al. (2014) J. Biomol. Screen. 19, 1338-1349). Codon-optimized human 4R2N Tau for E. coli expression with a Strep-tag II at the C-terminus (His-Tau-Strep) was cloned into pET-28a(+) vector (Novagen). The constructs were transformed into E. coli BL-21(DE3) competent cells (Novagen). For GST-Fyn-SH3-Strep purification, a single colony was inoculated in Luria-Bertani (LB) broth at 37° C. overnight. 10 mL cell culture was added into 500 mL LB medium and cultured at 37° C. 0.5 mM Isopropyl β-D-1-thiogalactopyranoside (IPTG) was added into the culture when OD600 reached 0.7. Cells were further cultured at 25° C. for 4 hours and harvested. Cell pellet was resuspended in lysis buffer (20 mM Tris pH 7.9, 300 mM NaCl, 1 mM TCEP) with 1 tablet of EDTA-free protease inhibitors (ThermoFisher) and 1 mg/ml lysozyme. Cells were disrupted by sonication and debris was removed by centrifugation at 9500 rpm for 1 hour. Supernatant was loaded onto a glutathione-sepharose column (Cytiva). The column was washed in lysis buffer and protein eluted in lysis buffer containing 25 mM reduced glutathione. For His-Tau-Strep protein purification, cells were inoculated in LB broth medium and cultured at 37° C. overnight. A 10 mL overnight culture was added to 500 mL of auto-induction medium (Studier, F. W. (2005) Protein Expr Purif 41, 207-34) and cells were cultured at 37° C. for about 5 hours. The temperature was lowered to 18° C., and cells were cultured overnight. Cells were harvested and resuspended in lysis buffer with 20 mM imidazole, protease inhibitors, and lysozyme. Cells were disrupted by sonication and cell pellets were spun down at 9500 rpm for 1 hour. Supernatant was loaded onto Ni-NTA column (Cytiva) and the column was washed in lysis buffer with 20 mM imidazole. His-Tau-Strep protein was eluted in lysis buffer containing 400 mM imidazole. Both eluted GST-Fyn-SH3-Strep and His-Tau-Strep protein solutions were passed through G-25 desalting column (Cytiva) with lysis buffer and loaded onto high capacity Strep-Tactin column (IBA Lifesciences). The columns were washed in Buffer W (IBA Life sciences) and proteins were eluted in Buffer E (IBA life sciences). The eluted proteins were passed through G-25 desalting column again. Both GST-Fyn-Strep and His-Tau-Strep proteins were concentrated and diluted 1:1 in ethylene glycol as a cryoprotectant for storage at −80° C.
AlphaScreen was conducted with 10 µg/mL of glutathione donor beads (PerkinElmer, Waltham, MA) and nickel chelate acceptor beads (PerkinElmer) in 10 mM Bis-Tris (pH 7.0), 1 mM TCEP, 0.02% casein, and 0.1% Tween-20. Compounds were plated first followed by addition of one the proteins at 600 nM and incubation for 30 min. The second protein was added and incubated for 30 mn, then the beads were added simultaneously and the final mixture was incubated for 2 hours. Experiments were conducted in 384-well plates (6007290; PerkinElmer) and results were read on a PHERAstar plate reader (BMG Labtech, Cary, NC).
˜50,000 compounds from the Enamine and Southern Research libraries were screened to identify Tau-FynSH3 interaction inhibitors using an AlphaScreen assay (Cochran, et al. (2014) J. Biomol. Screen. 19, 1338-1349). Compounds that were >3 standard deviations above mean inhibition were selected, yielding 1,852 hits (FIG. 1A). […]. These 39 compounds were tested in a live-cell BRET assay to measure Tau-Fyn interaction in cells. […]. Screen. 19, 1338-1349).

[3] = Partition coefficient (LogD); format: physicochemical; conditions: Table 3; read-out: ADME LogD
Text: as §1

Tau-Fyn interaction = Tau-Fyn interaction (Homo sapiens (Human), UniProt P10636); assay: Tau-Fyn PLA screening in HEK-293 cells; format: cell-based; conditions: compound 15 μM, 24 hours
Sequence of Tau-Fyn interaction (P10636 other isoform, or with tags, fused parts or gaps): as above
Method: Tau-Fyn PLA screening in HEK-293 cells: For Tau-Fyn PLA in HEK-293 cells, we used the same plasmids as before (Rush, et al. (2020) Neurobiol Dis 134, 104668): human 4R2N Tau with an N-terminal mKate2 tag in a pcDNA3.1 vector and human Fyn with an N-terminal Myc tag in a pCMV-Sport6 vector grown in Stellar E. coli. HEK-293 cells were plated on coverslips coated with PDL and laminin in a 24-well plate in DMEM supplemented with 10% FBS and 1% PenStrep. Cells were transfected with 125 ng of Tau-mKate2 and Fyn plasmids with 1.5 μL Fugene in plain DMEM. After 24 hours, compound was applied at 15 μM. Twenty-four hours after application, cells were fixed. PLA protocol was the same as above except for different primary antibodies (Tau5 1:500, Fyn3 1:250). After image acquisition, PLA density was calculated as PLA puncta (as above) divided by cell area to account for differences in confluency. Cell area was defined with ImageJ as % Area after theresholding Tau-mKate2 fluorescence because it filled the cells evenly. Puncta/cell area was then normalized to vehicle-treated slides from that experiment.

primary rat neurons = assay: Modified MTT assay of Aβ toxicity in primary neurons; format: cell-based; conditions: compound 0.3, 3 or 15 μM, 90-minute pretreatment, 2.5 μM Aβ, 24 hours
Text: Primary neuron cultures: All animal procedures were approved by the Institutional Animal Care and Use Committee at the University of Alabama at Birmingham (UAB). As before (Rush, et al. (2020) Neurobiol Dis 134, 104668; Voskobiynyk, et al. (2020) eLife 9, e57354), primary rat neurons were isolated from timed-pregnant Sprague-Dawley rats. Briefly, dams were euthanized with isoflurane anesthesia asphyxiation, and hippocampal tissue was isolated from E19 embryos in Hibernate E, then digested in papain for 10 minutes at 37° C. Neurons were triturated into a single cell suspension in Neurobasal supplemented with B-27, L-Glutamine, and 10% FBS, then plated in 96-well plates coated with PDL and laminin at 30,000 neurons per well in 200 uL medium or in 24-well coated plates with or without coverslips at 50,000 per well. Cultures were maintained at 37° C. with 5% CO2. Twenty-four hours after plating (DIV1), two 50% media changes with Neurobasal plus B-27 and L-Glutamine without FBS, and 5 μM cytosine β-D-arabinofuranoside was added to prevent glial proliferation. 50% media changes were performed at DIV7 and DIV14 with serum-free supplemented Neurobasal and experiments were started at DIV19.
Aβ oligomer preparation: As before (Rush, et al. (2020) Neurobiol Dis 134, 104668), lyophilized recombinant Aβ42 was dissolved in HFIP, dried overnight, then stored at −20° C. until oligomerization. To oligomerize, Aβ was dissolved in DMSO to 1 mM, then diluted to 100 µM in PBS, then sonicated and left on ice for 24 hours. Immediately prior to use, Aβ was centrifuged at 4° C. for 10 minutes at 14,000×g. Vehicle was prepared as well in identical fashion except lacking the Aβ peptide.
Aβ toxicity assays: The modified MTT and MAP2 assays were adapted from a recent study (Rush, et al. (2020) Neurobiol Dis 134, 104668). Briefly, at DIV19, media on the neurons was reduced to […], then compound was added to final concentration of 0 μM, 0.3 μM, 3 μM, or 15 μM with even amounts of DMSO. After 90-minute pretreatment with compound, 2.5 μM Aβ was added.
The modified MTT assay was performed 24 hours after Aβ application. 100 μM MTT was applied to neurons and incubated at 37° C. for one hour. Media was removed, then replaced with 15 μL 1.6% Tween20 in PBS and incubated on a shaker at 100 rpm for 5 minutes. The Tween was then removed and transferred to a 384-well clear-bottom plate and replaced with 15 μL isopropanol. Plates were again agitated for 5 minutes at RT, then isopropanol was transferred to the 384-well plate. Absorbance was then read at 590 nm on a plate reader, with 660 nm used as a reference. The ratio of Tween soluble MTT to isopropanol soluble (Tween-insoluble) MTT was calculated for each sample, then normalized to the vehicle group average.

[4] = Table 3, read-out: Alpha screen IC50

SMILES	half-life [1]	ADME Sol (μM) (Solubility)	half-life [2]	IC50 (Tau-FynSH3 interaction; [4])	logD [3]	MLM t1/2 ([1]; Table 2)	IC50 (Tau-FynSH3 interaction; Table 2, Tau-FynSH3 inhibitory activity in the AlphaScreen, read-out: IC50)	Tau-Fyn interaction in cells, Tau-Fyn PLA in HEK-293 cells (Tau-Fyn interaction)	Aβ toxicity / Aβ-induced membrane trafficking dysfunction, modified MTT assay (primary rat neurons)
O=C(CCN1C(=O)CSc2cc(F)ccc21)Nc1nnc(-c2ccccn2)[nH]1 [compound 7, 3-(7-FLUORO-3-Oxo-2H-BENZO[B][1,4]THIAZIN-4(3H)-YL)-N-(5-(PYRIDIN-2-YL)-4H-1,2,4-TRIAZOL-3-YL)PROPANAMIDE]	22 min	Sol = 69 μM	78 min	1920 nM	2	–	–	–	–
O=C(CCN1C(=O)CSc2cc(F)c(F)cc21)Nc1nnc(-c2ccccn2)[nH]1 [compound 9, 3-(6,7-DIFLUORO-3-OXO-2H-BENZO[B][1,4]THIAZIN-4(3H)-YL)-N-(5-(PYRIDIN-2-YL)-4H-1,2,4-TRIAZOL-3-YL)PROPANAMIDE]	20 min	Sol = 81 μM	53 min	2970 nM	1.8	–	–	–	–
O=C(CN1C(=O)CSc2ccc(F)cc21)Nc1nnc(-c2ccccn2)[nH]1 [compound 15, 2-(6-FLUORO-3-OXO-2H-BENZO[B][1,4]THIAZIN-4(3H)-YL)-N-(5-(PYRIDIN-2-YL)-4H-1,2,4-TRIAZOL-3-YL)ACETAMIDE]	53 min	Sol = 65 μM	238 min	1080 nM	1.8	–	–	–	–
O=C(CN1C(=O)CSc2ccc(Cl)cc21)Nc1nnc(-c2ccccn2)[nH]1 [compound 16, 2-(6-CHLORO-3-OXO-2H-BENZO[B][1,4]THIAZIN-4(3H)-YL)-N-(5-(PYRIDIN-2-YL)-4H-1,2,4-TRIAZOL-3-YL)ACETAMIDE]	26 min	Sol = 9 μM	74 min	2580 nM	2.3	–	–	–	–
O=C(CN1C(=O)CCSc2ccccc21)Nc1nnc(-c2ccccn2)[nH]1 [compound 18, 2-(4-OXO-3,4-DIHYDROBENZO[B][1,4]THIAZEPIN-5(21)-YL)-N-(5-(PYRIDIN-2-YL)-4H-1,2,4-TRIAZOL-3-YL)ACETAMIDE]	40 min	Sol = 59 μM	152 min	3530 nM	1.3	–	–	–	–
CC1(C)Sc2ccccc2N(CC(=O)Nc2nnc(-c3ccccn3)[nH]2)C1=O [compound 19]	8 min	Sol = 20 μM	28 min	1500 nM	1.3	–	–	–	–
COc1ccc2c(c1)SCC(=O)N2CC(=O)Nc1nnc(-c2ccccn2)[nH]1 [compound 21, 2-(7-METHOXY-3-OXO-2H-BENZO[B][1,4]THIAZIN-4(3H)-YL)-N-(5-(PYRIDIN-2-YL)-4H-1,2,4-TRIAZOL-3-YL)ACETAMIDE]	53 min	Sol = 46 μM	175 min	1030 nM	1.7	–	–	–	–
O=C(Cn1c(=O)sc2ccccc21)Nc1nnc(-c2ccccn2)[nH]1 [compound 26]	82 min	Sol = 22 μM	> 300 min	1010 nM	1.5	–	–	–	–
O=C(CN1CCSc2cc(C(=O)O)ccc21)Nc1nnc(-c2ccccn2)[nH]1 [compound 64]	–	–	–	–	–	>300 min	< 200 nM	–	–
O=C(CCN1CCSc2ccccc21)Nc1nnc(-c2ccccn2)[nH]1 [compound no. 57]	–	–	–	–	–	–	–	did not reduce Tau-Fyn interaction in cells	did not
